Experimental data from patent US20250236616A1, “IMMUNOMODULATING AZALIDES” (Zoetis Services LLC, priority 2021, published 2025).

How the values were obtained:
Type in all cases: cell-based
IL-1β = experiment: Whole bovine blood assay, LPS-induced IL-1β (inhibition / overstimulation); details: drug concentration giving overstimulation (OS) of LPS-induced IL-1β, top concentration 250 μM
Experimental: Whole Blood Assay-Fresh whole bovine blood samples were collected into heparinized vacutainer tubes. Assay plates were prepared with 25 μL of drug diluted in PBS at varying concentration in 96 round bottom wells, then 225 μL of blood was added and plates incubated at 37° C. for 4 hours. Cells were stimulated with LPS (or PBS for controls) by adding 25 μL to the plates at a final concentration of 1 μg/mL and incubated at 37° C. for 18 hours. To collect plasma, plates were centrifuged at 2,000×g for 10 minutes and 100 μL of supernatant was transferred to a 96 well polypropylene plate that was sealed and stored at −80° C. Samples were assayed for cytokines using the Meso Scale Discovery (MSD) platform (described below). This same MSD platform was used to assess cytokines in the plasma collected directly from drug treated animals.
Cytokine Detection—An MSD U-Plex cytokine assay was developed following the MSD U-Plex protocol guide and included biotinylated capture antibodies against: bovine Interleukin (IL)-1β (Biorad), bovine IL-6 (R&D Systems) and bovine tumor necrosis factor (TNF)-α (R&D Systems). The anti-IL-1β antibody was biotinylated using EZ-Link Sulfo-NHS-Biotin (Thermo Scientific) at a challenge ratio of 1:20 according to manufacturer instructions. Assay calibrators (Kingfisher) were diluted to a concentration of […] in control lithium heparin plasma, followed by 4-fold serial dilutions into plasma. The detection antibodies were sulfo-tagged following the MSD quick guide conjugation protocol using a challenge ratio of 1:20. Antibodies were used at the following concentrations: anti-IL-1β at 1 μg/mL, anti-IL-6 at 1 μg/mL and anti-TNF-α at 0.5 μg/mL. Cytokines were quantified according to manufacturer's instructions using a chemiluminescent readout. In brief, 0.5 mL of all biotinylated antibodies were diluted to 10 μg/mL with Diluent 100 and paired to their respective linkers by adding 750 μL of supplied Linker solution and incubated for 30 minutes followed by addition of Stop solution for another 30 minutes. The linked antibodies were then diluted 10-fold into Stop solution. Plates were coated by adding 50 μL of antibody solutions per well and incubated covered and shaking for 1 hour at room temperature. Plates were washed three times with PBS/Tween20 prior to samples or standards being added at 30 μL per well and incubated as above. Plates were washed three times before detection antibodies were added along with 2% goat and rabbit serum to block and incubated same as above. Plates were washed a further three times before addition of 150 μL 2X Read buffer and read immediately on the SI6000 instrument (MSD). For soluble protein levels, a BCA protein kit (Thermofisher) was used. The cytokine concentrations (pg/mL) were normalized to the total protein levels for each sample. [Bassel et. al., BMC Veterinary Research (2020) 16:168]
Therefore, a fresh whole bovine blood assay was developed with LPS as a stimulant (TLR-4 agonist) and with IL-1β and TNF-α as the read-out. Compounds of the invention were evaluated against a positive control for their ability to inhibit LPS-induced IL-1β and TNF-α as an overall evaluation of relative potency and modulation of target pathways.
For M9, the top dose of 500 μM was not high enough to determine an overstimulation of IL-1 B which was recorded as not applicable (n/a). The enhanced response indicates increased concentration of IL-1β cytokine at the drug concentration indicated. This is generally observed when compounds are out of range (high concentration) and stimulate a cellular toxicity signal. Further data supporting this hypothesis includes murine studies using a P. multocida infection in mice.
TNFα is a cell signaling protein, cytokine, that plays a key role in both acute and chronic inflammation. […]

IL-6 = experiment: Whole bovine blood assay, LPS-induced IL-6; details: fresh whole bovine blood, LPS stimulant; top drug concentration 250 μM
TNF-α = experiment: Whole bovine blood assay, LPS-induced TNF-α; details: fresh whole bovine blood, LPS stimulant; top drug concentration 250 μM
Method in brief: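 Fresh heparinized bovine whole blood was preincubated with compound 4 h at 37 °C, then stimulated with LPS (final 1 μg/mL) for 18 h at 37 °C. Plasma TNF-α was quantified by MSD U-Plex chemiluminescent immunoassay, normalized to total protein (BCA), and IC50 taken for LPS-induced TNF-α inhibition.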

| Compound | minimal effective concentration (IL-1β) [µM] | IC50 (IL-6) [µM] | IC50 (TNF-α) [µM] |
| --- | --- | --- | --- |
| CC[C@H]1OC(=O)[C@H](C)[C@@H](O)[C@H](C)[C@@H](O[C@@H]2O[C@H](C)C[C@H](N(C)S(=O)(=O)C3CC3)[C@H]2Oc2ccccc2)[C@](C)(O)C[C@@H](C)CN[C@H](C)[C@@H](O)[C@]1(C)O [Example A-32] | 100 | 167 | – |
| CC[C@H]1OC(=O)[C@H](C)[C@@H](O[C@H]2C[C@@](C)(OC)[C@](O)(CNC)[C@H](C)O2)[C@H](C)[C@@H](O[C@@H]2O[C@H](C)C[C@H](N(C)S(=O)(=O)Nc3ccc(C(F)(F)F)cc3)[C@H]2O)[C@](C)(O)C[C@@H](C)CN[C@H](C)[C@@H](O)[C@]1(C)O [Example B-76] | >250 | > 250 | > 250 |
| CC[C@H]1OC(=O)[C@H](C)[C@@H](O[C@H]2C[C@@](C)(OC)[C@](O)(CN3CCC3)[C@H](C)O2)[C@H](C)[C@@H](O[C@@H]2O[C@H](C)C[C@H](N(C)S(=O)(=O)c3ccc(Cl)cc3)[C@H]2O)[C@](C)(O)C[C@@H](C)CN[C@H](C)[C@@H](O)[C@]1(C)O [Example C-2] | 6 | 13 | – |
| CCCN([C@H]1C[C@@H](C)O[C@@H](O[C@@H]2[C@@H](C)[C@H](O[C@H]3C[C@@](C)(OC)[C@](O)(CN4CCCCC4)[C@H](C)O3)[C@@H](C)C(=O)O[C@H](CC)[C@@](C)(O)[C@H](O)[C@@H](C)NC[C@H](C)C[C@@]2(C)O)[C@@H]1O)S(=O)(=O)c1ccc(OC)cc1 [Example C-41] | >250 | 4 | – |
| CC[C@H]1OC(=O)[C@H](C)[C@@H](O[C@H]2C[C@@](C)(OC)[C@](O)(Cn3ccnc3)[C@H](C)O2)[C@H](C)[C@@H](O[C@@H]2O[C@H](C)C[C@H](N(C)S(=O)(=O)c3ccc(Cl)cc3)[C@H]2O)[C@](C)(O)C[C@@H](C)CN[C@H](C)[C@@H](O)[C@]1(C)O [Example C-5] | 16 | 31 | – |
| CCCNC[C@]1(O)[C@H](C)O[C@@H](O[C@H]2[C@H](C)[C@@H](O[C@@H]3O[C@H](C)C[C@H](N(C)S(=O)(=O)c4cnn(-c5ccc(C(F)(F)F)cn5)c4)[C@H]3Oc3ccc(OC)cc3)[C@](C)(O)C[C@@H](C)CN[C@H](C)[C@@H](O)[C@](C)(O)[C@@H](CC)OC(=O)[C@@H]2C)C[C@@]1(C)OC [Example B-123] | 6 | 4 | – |
| CC[C@H]1OC(=O)[C@H](C)[C@@H](O[C@H]2C[C@@](C)(OC)[C@](O)(CN3CCCCC3)[C@H](C)O2)[C@H](C)[C@@H](O[C@@H]2O[C@H](C)C[C@H](N(C)S(=O)(=O)Nc3ccccc3)[C@H]2O)[C@](C)(O)C[C@@H](C)CN(CC)[C@H](C)[C@@H](O)[C@]1(C)O [Example C-20] | 10 | 24 | – |
| CCCNC[C@]1(O)[C@H](C)O[C@@H](O[C@H]2[C@H](C)[C@@H](O[C@@H]3O[C@H](C)C[C@H](N(C)S(=O)(=O)c4ccccc4)[C@H]3Oc3cccc(CO)c3)[C@](C)(O)C[C@@H](C)CN[C@H](C)[C@@H](O)[C@](C)(O)[C@@H](CC)OC(=O)[C@@H]2C)C[C@@]1(C)OC [Example B-133] | 16 | 24 | – |
| CC[C@H]1OC(=O)[C@H](C)[C@@H](O[C@H]2C[C@@](C)(OC)[C@](O)(CNCCC3CCOCC3)[C@H](C)O2)[C@H](C)[C@@H](O[C@@H]2O[C@H](C)C[C@H](N(C)S(=O)(=O)c3ccc(Cl)cc3)[C@H]2O)[C@](C)(O)C[C@@H](C)CN[C@H](C)[C@@H](O)[C@]1(C)O [Example B-34] | 6 | 20 | – |
| CCCNC[C@]1(O)[C@H](C)O[C@@H](O[C@H]2[C@H](C)[C@@H](O[C@@H]3O[C@H](C)C[C@H](N(C)S(=O)(=O)c4cccnc4Cl)[C@H]3Oc3ccc(OC)cc3)[C@](C)(O)C[C@@H](C)CN[C@H](C)[C@@H](O)[C@](C)(O)[C@@H](CC)OC(=O)[C@@H]2C)C[C@@]1(C)OC [Example B-124] | 6 | 4 | – |
| CCCNC[C@]1(O)[C@H](C)O[C@@H](O[C@H]2[C@H](C)[C@@H](O[C@@H]3O[C@H](C)C[C@H](N(C)S(=O)(=O)c4cnc(Cl)c(Br)c4)[C@H]3Oc3ccc(OC)cc3)[C@](C)(O)C[C@@H](C)CN[C@H](C)[C@@H](O)[C@](C)(O)[C@@H](CC)OC(=O)[C@@H]2C)C[C@@]1(C)OC [Example B-117] | 16 | 142 | – |
| CCCNC[C@]1(O)[C@H](C)O[C@@H](O[C@H]2[C@H](C)[C@@H](O[C@@H]3O[C@H](C)C[C@H](N(C)S(=O)(=O)c4cn(C)c(C)n4)[C@H]3O)[C@](C)(O)C[C@@H](C)CN[C@H](C)[C@@H](O)[C@](C)(O)[C@@H](CC)OC(=O)[C@@H]2C)C[C@@]1(C)OC [Example B-5] | >250 | – | > 250 |
| CC[C@H]1OC(=O)[C@H](C)[C@@H](O[C@H]2C[C@@](C)(OC)[C@](O)(CNCCNC(C)=O)[C@H](C)O2)[C@H](C)[C@@H](O[C@@H]2O[C@H](C)C[C@H](N(C)S(=O)(=O)Nc3ccc(C(F)(F)F)cc3)[C@H]2O)[C@](C)(O)C[C@@H](C)CN[C@H](C)[C@@H](O)[C@]1(C)O [Example B-81] | 15 | – | 22 |
| CC[C@H]1OC(=O)[C@H](C)[C@@H](O)[C@H](C)[C@@H](O[C@@H]2O[C@H](C)C[C@H](N(C)S(=O)(=O)Nc3ccccc3)[C@H]2Oc2ccc(OC)cc2)[C@](C)(O)C[C@@H](C)CN[C@H](C)[C@@H](O)[C@]1(C)O [Example A-36] | 4 | – | 10 |
| CC[C@H]1OC(=O)[C@H](C)[C@@H](O[C@H]2C[C@@](C)(OC)[C@](O)(CNCCc3ccncc3)[C@H](C)O2)[C@H](C)[C@@H](O[C@@H]2O[C@H](C)C[C@H](N(C)S(=O)(=O)c3ccc(Cl)cc3)[C@H]2O)[C@](C)(O)C[C@@H](C)CN[C@H](C)[C@@H](O)[C@]1(C)O [Example B-29] | 12 | 54 | – |
| CCCNC[C@]1(O)[C@H](C)O[C@@H](O[C@H]2[C@H](C)[C@@H](O[C@@H]3O[C@H](C)C[C@H](N(C)S(N)(=O)=O)[C@H]3O)[C@](C)(O)C[C@@H](C)CN(CCC)[C@H](C)[C@@H](O)[C@](C)(O)[C@@H](CC)OC(=O)[C@@H]2C)C[C@@]1(C)OC [Example B-158] | >250 | – | 102 |
| CC[C@H]1OC(=O)[C@H](C)[C@@H](O[C@H]2C[C@@](C)(OC)[C@](O)(CNCCOC)[C@H](C)O2)[C@H](C)[C@@H](O[C@@H]2O[C@H](C)C[C@H](N(C)S(=O)(=O)c3ccc(Cl)cc3)[C@H]2O)[C@](C)(O)C[C@@H](C)CN[C@H](C)[C@@H](O)[C@]1(C)O [Example B-36] | 16 | – | 29 |
| CCCNC[C@]1(O)[C@H](C)O[C@@H](O[C@H]2[C@H](C)[C@@H](O[C@@H]3O[C@H](C)C[C@H](N(C)S(=O)(=O)c4ccc(-n5cccn5)cc4)[C@H]3O)[C@](C)(O)C[C@@H](C)CN[C@H](C)[C@@H](O)[C@](C)(O)[C@@H](CC)OC(=O)[C@@H]2C)C[C@@]1(C)OC [Example B-19] | 16 | – | 30 |
| CCCN1C[C@H](C)C[C@@](C)(O)[C@H](O[C@@H]2O[C@H](C)C[C@H](N(C)S(N)(=O)=O)[C@H]2O)[C@@H](C)[C@H](O[C@H]2C[C@@](C)(OC)[C@](O)(CN3CCCCC3)[C@H](C)O2)[C@@H](C)C(=O)O[C@H](CC)[C@@](C)(O)[C@H](O)[C@H]1C [Example C-17] | 250 | – | 23 |
